From US9309254B2, “Pyrimidinyl-diazospiro compounds” (CONVERGENCE PHARMACEUTICALS LIMITED, priority 2012, dated 2016)
Structures can show the parent of a compound that is named as a salt. Where two headings read alike, the source gives them in different places.

Biological target: T1, hNaV1.7 (Homo sapiens, UniProt Q15858)
T1 construct: expressed in transfected cells; host or cells: HEK293
Assay: QPatch NaV1.7 assay
Format: cell-based
Details: HEK293-hNaV1.7 cells, QPatch16x
Description: The compounds of the invention were tested in a QPatch NaV1.7 assay.
HEK293-hNaV1.7 cells were grown in DMEM-F12+10% FBS culture media at 37° C. At a confluency of 50-70% cells were dissociated from culture flasks & triturated to ensure unicellular cell suspension; cell density was measured & adjusted to 2-3×10^6 cells/ml. Recordings were obtained using QPatch16x. The external solution was (in mM): NaCl, 128; KCl, 5; MgCl2, 2; CaCl2, 2; Glucose, 30; HEPES, 15; pH 7.3, 305-315 mOsm. Following seal formation and whole-cell access using internal solution (containing in mM: CsF, 135; EGTA/CsOH, 1/5; HEPES 10; NaCl, 10; pH 7.3, 310-320mOsM), voltage pulse protocols were applied. Initially a steady state inactivation voltage protocol was used to determine the half-maximal voltage for steady state inactivation (V1/2 SSI). Two holding voltages were used to determine test drug inhibition: −90 mV, where most of the channels are in a closed state; and V1/2 SSI, where half of the channels are inactivated. Currents were elicited every 10 seconds by stepping to a membrane potential of 0 mV for 20 ms. Four-point cumulative concentration responses were derived by determining the peak current amplitude at each concentration of test drug over 120 second application. Curves were fitted with the Hill equation yielding pIC50 values at −90 mV and V1/2 SSI holding potentials.

[1] = holding voltage V1/2 SSI, where half of the channels are inactivated, read-out: QP Nav1.7 SSI vhalf pIC50 (converted)
[2] = holding voltage −90 mV, where most of the channels are in a closed state, read-out: QP Nav1.7 - 90 mV pIC50 (converted)

T1 sequence (Q15858 whole entry): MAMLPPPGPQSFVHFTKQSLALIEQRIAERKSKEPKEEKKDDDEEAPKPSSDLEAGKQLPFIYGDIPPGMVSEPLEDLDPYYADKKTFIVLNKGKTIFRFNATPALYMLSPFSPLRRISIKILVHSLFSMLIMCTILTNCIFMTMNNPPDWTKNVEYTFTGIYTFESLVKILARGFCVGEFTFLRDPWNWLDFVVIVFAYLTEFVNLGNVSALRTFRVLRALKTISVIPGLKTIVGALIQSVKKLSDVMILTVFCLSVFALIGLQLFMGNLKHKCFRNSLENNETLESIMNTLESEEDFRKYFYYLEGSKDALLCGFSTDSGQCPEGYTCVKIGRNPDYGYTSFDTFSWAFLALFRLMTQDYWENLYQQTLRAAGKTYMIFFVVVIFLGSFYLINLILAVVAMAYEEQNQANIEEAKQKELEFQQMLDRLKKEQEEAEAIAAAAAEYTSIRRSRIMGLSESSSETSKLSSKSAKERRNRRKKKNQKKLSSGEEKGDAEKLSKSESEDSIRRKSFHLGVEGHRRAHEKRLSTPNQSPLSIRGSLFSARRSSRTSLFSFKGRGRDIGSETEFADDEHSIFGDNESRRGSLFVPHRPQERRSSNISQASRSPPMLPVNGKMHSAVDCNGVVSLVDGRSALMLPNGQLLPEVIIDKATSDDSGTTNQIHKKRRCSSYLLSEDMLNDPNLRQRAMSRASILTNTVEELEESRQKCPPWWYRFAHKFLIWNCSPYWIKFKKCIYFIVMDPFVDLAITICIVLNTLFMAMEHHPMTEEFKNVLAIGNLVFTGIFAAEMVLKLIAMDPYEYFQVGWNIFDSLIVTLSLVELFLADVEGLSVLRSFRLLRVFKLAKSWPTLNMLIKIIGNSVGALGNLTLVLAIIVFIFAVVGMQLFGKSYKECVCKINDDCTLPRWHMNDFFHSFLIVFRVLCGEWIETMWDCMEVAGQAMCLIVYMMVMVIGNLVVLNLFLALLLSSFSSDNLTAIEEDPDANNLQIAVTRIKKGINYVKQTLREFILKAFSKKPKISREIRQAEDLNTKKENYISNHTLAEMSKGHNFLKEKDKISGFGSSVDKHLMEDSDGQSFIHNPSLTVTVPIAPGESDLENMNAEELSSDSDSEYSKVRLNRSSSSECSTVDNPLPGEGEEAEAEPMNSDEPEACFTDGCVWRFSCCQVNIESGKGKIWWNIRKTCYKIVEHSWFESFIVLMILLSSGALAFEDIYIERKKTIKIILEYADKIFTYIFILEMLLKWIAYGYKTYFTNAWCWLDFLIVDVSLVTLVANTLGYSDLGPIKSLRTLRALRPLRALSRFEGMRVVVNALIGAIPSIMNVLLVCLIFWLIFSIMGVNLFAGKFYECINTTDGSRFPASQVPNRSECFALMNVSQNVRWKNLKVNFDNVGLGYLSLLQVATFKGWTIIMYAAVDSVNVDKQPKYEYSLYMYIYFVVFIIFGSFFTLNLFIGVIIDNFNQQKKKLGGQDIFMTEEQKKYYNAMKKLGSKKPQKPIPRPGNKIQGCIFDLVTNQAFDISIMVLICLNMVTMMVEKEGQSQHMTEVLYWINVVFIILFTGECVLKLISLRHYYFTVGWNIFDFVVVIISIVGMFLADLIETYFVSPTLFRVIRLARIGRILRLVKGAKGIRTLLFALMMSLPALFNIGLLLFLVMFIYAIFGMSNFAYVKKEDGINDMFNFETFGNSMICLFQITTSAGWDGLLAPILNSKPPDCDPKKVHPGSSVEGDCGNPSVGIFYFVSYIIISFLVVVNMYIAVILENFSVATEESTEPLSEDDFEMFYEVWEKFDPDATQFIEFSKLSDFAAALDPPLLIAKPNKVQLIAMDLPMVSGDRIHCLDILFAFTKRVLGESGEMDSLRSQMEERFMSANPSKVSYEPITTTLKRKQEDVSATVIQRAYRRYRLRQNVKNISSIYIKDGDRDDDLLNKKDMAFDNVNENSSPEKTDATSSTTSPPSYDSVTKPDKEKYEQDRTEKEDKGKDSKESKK

Compound | IC50 [1] [µM] | IC50 [2] [µM]
Cc1cc(-c2ccc(C(F)(F)F)cc2)nc([C@@H]2CC[C@]3(CCN(C)C3=O)N2)n1 [Example 5, (2S,5R)-7-Methyl-2-[4-methyl-6-[4-(trifluoromethyl)phenyl]pyrimidin-2-yl]-1,7-diazaspiro[4.4]nonan-6-one hydrochloride] | 100 | 79.4
CCOc1ccc(F)c(-c2cc(C)nc([C@H]3CC[C@]4(CCN(C)C4=O)N3)n2)c1 [Example 9, (2R,5R)-2-[4-(5-Ethoxy-2-fluoro-phenyl)-6-methyl-pyrimidin-2-yl]-7-methyl-1,7-diazaspiro[4.4]nonan-6-one hydrochloride] | 1.58 | 12.6
Cc1cc(-c2ccc(C(F)(F)F)cc2)nc([C@H]2CC[C@@]3(CCNC3=O)N2)n1 [Example 39, (2R,5S)-2-[4-Methyl-6-[4-(trifluoromethyl)phenyl]pyrimidin-2-yl]-1,7-diazaspiro[4.4]-nonan-6-one hydrochloride] | 15.8 | 126
CCOc1ccc(F)c(-c2cc(C)nc([C@H]3CC[C@]4(CCCNC4=O)N3)n2)c1 [Example 12, hydrochloride] | 2 | 20
CCOc1ccc(F)c(-c2cc(C)nc([C@@H]3CC[C@@]4(CCCNC4=O)N3)n2)c1 [Example 38, hydrochloride] | 3.16 | 50.1
CCOc1ccc(F)c(-c2ccnc([C@@H]3CC[C@]4(CCN(C)C4=O)N3)n2)c1 [Example 15, (2S,5R)-2-[4-(5-Ethoxy-2-fluoro-phenyl)pyrimidin-2-yl]-7-methyl-1,7-diazaspiro[4.4]nonan-6-one hydrochloride] | 12.6 | 126
Cc1cc(-c2ccc(C(F)(F)F)cc2)nc([C@@H]2CC[C@@]3(CCN(C)C3=O)N2)n1 (single isomer, unassigned) [Example 22, hydrochloride] | 63.1 | 7940
CCOc1ccc(F)c(-c2cc(C)nc([C@H]3CC[C@@]4(CCN(C)C4=O)N3)n2)c1 [Example 10, (2R,5S)-2-[4-(5-Ethoxy-2-fluoro-phenyl)-6-methyl-pyrimidin-2-yl]-7-methyl-1,7-diazaspiro[4.4]nonan-6-one hydrochloride] | 1.58 | 20
Cc1cc(-c2ccc(C(F)(F)F)cc2)nc([C@@H]2CC[C@]3(CC(C)(C)NC3=O)N2)n1 [Example 45, (2S,5R)-8,8-Dimethyl-2-[4-methyl-6-[4-(trifluoromethyl)phenyl]pyrimidin-2-yl]-1,7-diazaspiro[4.4]nonan-6-one hydrochloride] | 20 | 100
Cc1cc(-c2ccc(C(F)(F)F)cc2)nc([C@H]2CC[C@]3(CCNC3=O)N2)n1 [Example 42, (2R,5R)-2-[4-Methyl-6-[4-(trifluoromethyl)phenyl]pyrimidin-2-yl]-1,7-diazaspiro[4.4]nonan-6-one hydrochloride] | 50.1 | 501
Cc1cc(-c2ccc(OC(F)(F)F)cc2)nc([C@@H]2CC[C@]3(CCN(C)C3=O)N2)n1 [Example 29, (2S,5R)-7-Methyl-2-[4-methyl-6-[4-(trifluoromethoxy)phenyl]pyrimidin-2-yl]-1,7-diazaspiro[4.4]nonan-6-one hydrochloride] | 12.6 | 126
Cc1cc(-c2ccc(C(F)(F)F)cc2)nc([C@@H]2CC[C@@]3(CCNC3=O)N2)n1 [Example 41, (2S,5S)-2-[4-Methyl-6-[4(trifluoromethyl)-phenyl]-pyrimidin-2-yl]-1,7-diazaspiro[4.4]nonan-6-one hydrochloride] | 2.51 | 25.1
CN1CC[C@@]2(CC[C@@H](c3nccc(-c4ccc(C(F)(F)F)cc4)n3)N2)C1=O [Example 2, (2S,5S)-7-Methyl-2-[4-[4-(trifluoromethyl)phenyl]pyrimidin-2-yl]-1,7-diazaspiro[4.4]nonan-6-one hydrochloride] | 63.1 | 398
